Reference: patent publication US12599597B2, “Substituted N-benzhydrylacetamide inhibitors of jumanji domain histone demethylases for the treatment of cancer” (University of Kentucky Research Foundation, priority 2020, dated 2026)

Columns and labels:
[1] = biological target: T1, JMJD1A (KDM3A) (Homo sapiens, UniProt Q9Y4C1); assay: Histone demethylase assay / KDM3A enzymatic activity in vitro; type: biochemical
T1 sequence (Q9Y4C1 1-1321): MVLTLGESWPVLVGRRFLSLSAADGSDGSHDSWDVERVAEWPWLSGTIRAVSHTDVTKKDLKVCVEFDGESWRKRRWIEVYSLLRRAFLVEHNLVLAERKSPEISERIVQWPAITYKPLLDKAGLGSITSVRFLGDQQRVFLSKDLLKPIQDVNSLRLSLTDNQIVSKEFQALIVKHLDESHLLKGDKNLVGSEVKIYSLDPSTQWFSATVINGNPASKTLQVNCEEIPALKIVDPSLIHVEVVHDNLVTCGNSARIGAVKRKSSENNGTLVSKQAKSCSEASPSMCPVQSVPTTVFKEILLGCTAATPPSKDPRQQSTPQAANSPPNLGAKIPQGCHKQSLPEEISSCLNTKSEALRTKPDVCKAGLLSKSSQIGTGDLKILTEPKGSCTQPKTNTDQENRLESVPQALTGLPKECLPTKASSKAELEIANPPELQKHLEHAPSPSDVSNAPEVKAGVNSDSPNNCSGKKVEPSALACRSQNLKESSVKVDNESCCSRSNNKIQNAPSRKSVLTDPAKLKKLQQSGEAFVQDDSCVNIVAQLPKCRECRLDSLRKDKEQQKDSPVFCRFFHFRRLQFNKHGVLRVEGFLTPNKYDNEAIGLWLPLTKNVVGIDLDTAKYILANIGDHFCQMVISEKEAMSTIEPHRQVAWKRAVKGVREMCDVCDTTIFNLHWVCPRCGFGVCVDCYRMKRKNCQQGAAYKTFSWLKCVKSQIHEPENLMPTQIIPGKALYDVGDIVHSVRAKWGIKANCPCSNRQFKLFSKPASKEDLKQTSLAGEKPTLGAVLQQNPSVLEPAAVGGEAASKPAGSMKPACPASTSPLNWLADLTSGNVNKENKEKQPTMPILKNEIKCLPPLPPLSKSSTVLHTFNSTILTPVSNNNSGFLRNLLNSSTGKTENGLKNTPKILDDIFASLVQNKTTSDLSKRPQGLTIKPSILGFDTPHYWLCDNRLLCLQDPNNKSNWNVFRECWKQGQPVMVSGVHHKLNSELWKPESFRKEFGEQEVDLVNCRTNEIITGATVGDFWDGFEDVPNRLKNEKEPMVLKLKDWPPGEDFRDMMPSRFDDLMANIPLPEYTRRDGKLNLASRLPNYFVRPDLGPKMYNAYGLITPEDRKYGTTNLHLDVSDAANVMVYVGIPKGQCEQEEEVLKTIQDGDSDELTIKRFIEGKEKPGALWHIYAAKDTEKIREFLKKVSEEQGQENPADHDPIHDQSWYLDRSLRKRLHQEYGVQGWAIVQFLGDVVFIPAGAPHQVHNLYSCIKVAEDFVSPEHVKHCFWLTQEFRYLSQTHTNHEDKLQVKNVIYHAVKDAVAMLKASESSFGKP
Source text: Histone Demethylase Assay
To further examine the effects of 58B1 on histone demethylase, we screened a panel of purified histone demethylases was screened.
Identification of KDM3A as a target of CBA-1. KDM3A regulated H3K9Me^2 and underwent significant upregulation in CRC. To test if CBA-1 targeted KDM3A, a biotinylated analog CBA-B2 (FIG. 7A) was synthesized. […] Knocking-down KDM3A by shRNA inhibited cell proliferation (FIG. 7D) and Wnt target gene expression in LS174T CRC cells (FIG. 7E).
Repurposing drugs as CBA-1 analogs and KDM3 inhibitors. CBA-1 is a specific and potent KDM3A inhibitor. As backup candidates, two approved drugs were identified as CBA-1 analogs and KDM3A inhibitors. Based on the docking study (FIGS. 8A-B), the N and OH groups (red color in FIG. 12A) are critical in binding the Mn^2+ in KDM3A. […] A virtual screening was performed and several antibiotics that have similar structures were identified. Two of these antibiotics, clioquinol and nitroxoline (FIG. 12B), indeed inhibited the enzymatic activities of KDM3 (FIGS. 12C and D). These two drugs were tested in LS174T tumor xenograft model in SCID mice. […] Nitroxoline has been used in Europe for over 50 years as an antibiotic. It has anticancer effects, but the mechanism remains unclear.

[2] = system: Wnt signaling; assay: TOPFlash (Wnt) reporter assay in stable HEK293T cell line; type: cell-based
Source text: Wnt signaling is a key target for multiple human cancers, including but not limited to colon cancer, liver cancer, and lung cancer. To identify novel Wnt regulators by high throughput screening, a stable HEK293T cell line containing the TOPFlash reporter was established. Since β-catenin is often activated by mutations in the Wnt pathway, it is important to inhibit Wnt signaling downstream of β-catenin activity. Therefore, the screen was specifically designed to identify Wnt inhibitors that target events downstream of β-catenin. The Wnt signaling was activated by treating cells with lithium chloride to inhibit GSK3 and to stabilize β-catenin, mimicking the constitutively active Wnt signaling in cancer cells. Through this screen, a family of novel Wnt inhibitors that inhibited Wnt signaling at a 0.5-10 μM concentrations (Table 1) was identified.
After 6 h, the cells were treated with 25 mM LiCl to activate Wnt signaling. The inhibition ratio of each compound was determined (Table 1).
For the SAR studies, 58B1 (VMS-7-133) was re-synthesized. Additionally, SD70, a commercial KDM4 inhibitor, was both purchased and re-synthesized (VMS-7-175). […] VMS-7-195 is a biotinylated analog of 58B1. […] Specific KDM inhibitors may be used to target specific KDMs, such as KDM3A, which is highly expressed in many human cancers.
Identification of a CBA-1 as a novel Wnt inhibitor. The present inventors routinely use TOPFlash reporter assay for Wnt inhibitor screening. To mimic the constitutively active Wnt signaling found in CRC cells, Wnt signaling was activated by inhibiting GSK3 and stabilizing β-catenin. From screening in house small-molecule libraries, CBA-1 (FIG. 4) was identified that inhibited Wnt signaling in TOPFlash reporter assay. To validate the screening results, CBA-1 was tested in CRC cells.

[3] = system: CRC organoids from Apc^f/+/Kras^LSL-G12D/Villin-Cre mice; assay: Mouse CRC organoids formation; type: cell-based; conditions: 3 μM; p<0.01
Method: FIGS. 11A-B show an image and a graph illustrating mouse CRC organoids. (A) CRC organoids from Apc^f/+/Kras^LsL-G12D/Villin-Cre mice. (B) CBA-1 (3 μM) inhibited CRC organoids (*p<0.01; n=3).
CRC organoids models. To analyze the effects of CBA-1 in CRC, a colon cancer organoid model was established from Apc^f/+/Kras^LSL-G12D/Villin-Cre mice (FIG. 11A).

CCCC(=O)NC(c1ccc(N(CC)CC)cc1)c1cc(Cl)c2cccnc2c1O (stereo not drawn) [58B1]
inhibition at 10 µM ([1]; 58B1, 10 μM): 99%
KDM3A activity in vitro, dose-response study ([1]; at low micromolar levels): inhibited
inhibition ([2]; Homo sapiens, HEK-293T, Table 1, HEK293T TOPFlash, 25 mM LiCl after 6 h): 95%
inhibition at 1 µM ([2]; Homo sapiens, HEK-293T, Table 3, Wnt reporter assay at 1 μM, read-out: Percent inhibition at 1 μM): 90.9%
Wnt signaling in TOPFlash reporter assay ([2]; screening of in house libraries): inhibited
mouse CRC organoids formation [3]: significantly inhibited
